Consider one molecule from PMC5432571 (Frontiers in Molecular Neuroscience, 2017).

For one assay, the target named is T1, α3 GlyR (Homo sapiens, UniProt O75311).
T1 construct: expressed in transfected cells; host or cells: CHO cells
T1 sequence (O75311 34-464): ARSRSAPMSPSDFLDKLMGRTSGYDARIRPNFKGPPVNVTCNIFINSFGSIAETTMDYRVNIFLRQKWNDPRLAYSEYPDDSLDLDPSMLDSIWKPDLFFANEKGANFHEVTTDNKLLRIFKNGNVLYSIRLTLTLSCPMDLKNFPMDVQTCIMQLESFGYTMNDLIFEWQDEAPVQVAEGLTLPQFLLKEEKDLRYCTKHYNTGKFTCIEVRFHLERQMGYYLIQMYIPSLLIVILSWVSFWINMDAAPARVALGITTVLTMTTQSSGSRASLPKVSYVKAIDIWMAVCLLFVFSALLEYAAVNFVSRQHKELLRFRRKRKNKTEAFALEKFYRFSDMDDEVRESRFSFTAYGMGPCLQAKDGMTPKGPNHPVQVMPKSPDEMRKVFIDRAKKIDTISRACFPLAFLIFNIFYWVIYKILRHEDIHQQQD
Put plainly: Whole-cell patch-clamp of glycine-induced currents, α3 GlyR expressed in CHO cells. Type of assay: cell-based. Particulars: glycine 100 μM; for inhibition at 30 µM / inhibition at 300 µM: CHO, long application protocol, read-out: inhibition of α3 GlyR-mediated currents; for inhibition at 30 µM: NFA 30 μM; for inhibition at 300 µM: NFA 300 μM. The protocol: (§1) The experiments were carried out on cultured Chinese hamster ovary (CHO) cells obtained from the American Type Tissue Culture Collection (ATCC, Molsheim, France) that were maintained in culture conditions as previously described (Mukhtarov et al., [2013]; Maleeva et al., [2015]).
(§2) One day before transfection, cells were plated on the cover slips (12 mm in diameter) and placed inside 35-mm cell culture dishes with 2 ml of medium. Transfection was performed using the Lipofectamine 3000 protocol (Life Technology, USA). To facilitate identification of transfected cells a green fluorescent protein (GFP) was added to the transfection mixture. For expression of functional heteromeric receptors, cells were simultaneously transfected with cDNAs of α and β subunits in the ratio 1:10. Three hours after the initial exposure of cells to the cDNAs the culture medium was replaced with that containing strychnine (1 μM), which prevents spontaneous activation of GlyRs. Electrophysiological recordings were performed in the fluorescent cells 24–72 h after transfection.
(§3) Whole-cell and outside-out recordings were performed at room temperature (20–25°C) using an EPC-9 amplifier (HEKA Elektronik, Germany). Cells were continuously superfused with external solution containing (mM): NaCl 140, CaCl2 2, KCl 2.8, MgCl2 4, HEPES 20, glucose 10; pH 7.4; 320–330 mOsm. Intracellular solution used for filling recording patch pipettes contained (mM): CsCl 140, CaCl2 6, MgCl2 2, MgATP 2, NaGTP 0.4, HEPES/CsOH 10, BAPTA (tetrapotassium salt) 2; pH 7.3; 290 mOsm. Two different protocols of solutions application were used in this study. […] A “ramp protocol” implies the gradual change of Vhold alternately from −80 to +80 mV and from +80 to −80 mV during 1 s, Vhold was fixed at −80 or +80 mV at the beginning and at the end of the ramp for 500 ms (Figure 2B).
(§4) Recording pipettes were pulled from borosilicate glass capillaries (Harvard Apparatus Ltd, USA) and had resistances of 5–10 MOhm. For the rapid replacement of the solutions, the fast application system was used. Three parallel rectangular tubes (100 × 100 μm) were positioned 40–50 μm above the recorded cell. The movement of the tubes was controlled by a computer-driven fast exchange system (SF 77A Perfusion Fast-Step, Warner, USA) allowing a 10–90% solution exchange in 3–5 ms, as measured by open electrode controls (1/10 external solution/water). Cells with low input resistance (<150 MOhm) and a rapid run-down (>30% with repetitive application) were excluded from analysis.
(§5) Electrophysiological recordings were performed using PatchMaster (HEKA Electronic, Germany) software.
It is well documented that α3 GlyRs rapidly desensitize (Nikolic et al., [1998]) and this complicates accurate estimation of the NFA blocking potency.
(In general: In patch-clamp work, channel activity is measured electrically.)

The target in another assay is T2, α1β GlyR (Homo sapiens, UniProt P23415+P48167).
T2 construct: expressed in transfected cells; host or cells: CHO cells
T2 sequence (P23415 29-449 isoform P23415-2 limits assumed): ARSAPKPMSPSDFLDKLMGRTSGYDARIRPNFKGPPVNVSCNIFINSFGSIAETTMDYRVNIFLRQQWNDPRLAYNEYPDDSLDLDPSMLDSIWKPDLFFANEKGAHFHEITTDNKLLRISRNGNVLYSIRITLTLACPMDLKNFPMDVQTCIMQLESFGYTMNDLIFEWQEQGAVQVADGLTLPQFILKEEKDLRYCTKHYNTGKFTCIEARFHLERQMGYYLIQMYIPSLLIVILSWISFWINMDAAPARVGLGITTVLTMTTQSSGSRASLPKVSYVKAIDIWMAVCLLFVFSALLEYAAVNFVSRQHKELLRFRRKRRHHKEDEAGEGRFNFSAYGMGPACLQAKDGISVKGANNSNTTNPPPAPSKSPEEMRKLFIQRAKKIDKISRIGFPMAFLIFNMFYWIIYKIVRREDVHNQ
T2 sequence (P48167 23-497): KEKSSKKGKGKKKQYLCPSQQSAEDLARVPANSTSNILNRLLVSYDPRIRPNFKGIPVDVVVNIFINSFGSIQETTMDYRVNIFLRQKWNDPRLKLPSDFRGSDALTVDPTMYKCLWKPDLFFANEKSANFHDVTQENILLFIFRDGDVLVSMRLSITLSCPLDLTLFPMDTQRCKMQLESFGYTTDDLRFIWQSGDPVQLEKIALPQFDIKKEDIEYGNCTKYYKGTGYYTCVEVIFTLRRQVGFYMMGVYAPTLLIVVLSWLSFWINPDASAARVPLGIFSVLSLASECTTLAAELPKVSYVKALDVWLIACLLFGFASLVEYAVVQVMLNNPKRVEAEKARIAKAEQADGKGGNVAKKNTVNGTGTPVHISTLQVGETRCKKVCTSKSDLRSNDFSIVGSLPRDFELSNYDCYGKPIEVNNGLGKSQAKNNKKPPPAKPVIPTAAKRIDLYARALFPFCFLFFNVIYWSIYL
Put plainly: Whole-cell patch-clamp of glycine-induced currents, heteromeric α1β GlyR expressed in CHO cells. Format: cell-based. The settings on record: glycine 30 μM. The protocol:
as §1, §2, §3, §4, §5

For a further assay, the target named is T3, α2β GlyR (Homo sapiens, UniProt P23416+P48167).
T3 construct: expressed in transfected cells; host or cells: CHO cells
T3 sequence (P23416 28-452 isoform P23416-2 limits assumed): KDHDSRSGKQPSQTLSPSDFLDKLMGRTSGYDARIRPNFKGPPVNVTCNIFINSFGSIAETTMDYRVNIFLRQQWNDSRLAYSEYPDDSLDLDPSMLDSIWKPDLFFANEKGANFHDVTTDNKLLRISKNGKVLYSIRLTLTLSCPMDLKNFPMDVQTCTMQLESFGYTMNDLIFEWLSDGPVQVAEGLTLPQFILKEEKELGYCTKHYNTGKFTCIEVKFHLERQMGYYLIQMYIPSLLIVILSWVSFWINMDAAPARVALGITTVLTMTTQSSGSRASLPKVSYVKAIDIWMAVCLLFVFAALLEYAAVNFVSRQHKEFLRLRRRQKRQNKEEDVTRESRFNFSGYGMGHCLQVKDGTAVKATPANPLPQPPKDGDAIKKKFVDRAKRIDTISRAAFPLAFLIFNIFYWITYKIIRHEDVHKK
T3 sequence (P48167 23-497): as the sequence (P48167 23-497) above
The experiment in a line: Whole-cell patch-clamp of glycine-induced currents, heteromeric α2β GlyR expressed in CHO cells. Format: cell-based. Particulars: glycine 30 μM. The protocol: as §1, §2, §3, §4, §5

Assay [1] has as its system ClC-K kidney Cl− channels. Further details: method as in Zifarelli et al., 2010. The settings on record: biphasic: activates at low concentrations; ref Zifarelli et al., 2010; cited from earlier work.
The mark [2] stands for this setting: +30 mV, representative, read-out: NFA IC50 (representative IC50 curve).
[3] abbreviates: +80 mV, representative, read-out: NFA IC50 (representative IC50 curve).
[4] abbreviates: −30 mV, representative, read-out: NFA IC50 (representative IC50 curve).
[5] abbreviates: −80 mV, representative, read-out: NFA IC50 (representative IC50 curve).
Setting [6] is: +80 mV, mean ± SEM, read-out: IC50 of NFA.

Where two headings read alike, the source gives them in different places.

The term IC50 denotes the midpoint of a concentration-inhibition curve. Broadly, the inhibition is the share of the control response that was lost under treatment. In the case of `O=C(O)c1cccnc1Nc1cccc(C(F)(F)F)c1` [NFA, Niflumic acid], the IC50 at α3 GlyR (setting [2]) is 23 µM; at α3 GlyR (setting [3]), 10 µM; at α3 GlyR (MP +80 mV, mean ± SEM, read-out: IC50 of NFA) it was 16 ± 6 µM; on α3 GlyR (MP −80 mV, mean ± SEM, read-out: IC50 of NFA), 86 ± 14 µM; at α3 GlyR (setting [4]), 78 µM; at α3 GlyR (setting [5]) it was 117 µM. Also, the IC50 worked out at 152 µM at α1β GlyR (setting [2]); 150 ± 14 µM at α1β GlyR (setting [6]); 144 µM at α1β GlyR (setting [3]); 200 µM on α1β GlyR (setting [4]); 191 µM at α1β GlyR (setting [5]); 24 µM on α2β GlyR (setting [2]). Further, the IC50 was found to be 20 ± 8 µM at α2β GlyR (setting [6]); 22 µM on α2β GlyR (setting [3]); 47 µM at α2β GlyR (setting [4]); 107 ± 37 µM on α2β GlyR (−80 mV, mean ± SEM, read-out: IC50 of NFA); 84 µM on α2β GlyR (setting [5]). For the same molecule, the inhibition at 30 µM on α3 GlyR (+30 mV) came out at 62 ± 5%; at α3 GlyR (−30 mV) it was 32 ± 4%. The inhibition at 300 µM at α3 GlyR (+30 mV) worked out at 90 ± 2%; at α3 GlyR (−30 mV) it was 86 ± 5%. In addition, the “concentrations at which NFA blocks the channels” value in assay [1] is reported as > 1 mM.
